# Measured values published in US8933228B2, “Respiratory formulations and compounds for use therein” (Respivert, Ltd., priority 2010, dated 2015).
# Legend:
# [1] = tested on: TNFα release in d-U937 cells; assay: LPS-induced TNFα release in d-U937 cells; type: cell-based; settings: Homo sapiens, dU937, LPS 0.1 μg/mL, 4 hr, relative to 10 μg/mL BIRB796, read-out: d-U937 (LPS) TNFα REC50
# Protocol: (§1) U937 cells, a human monocytic cell line, were differentiated to macrophage-type cells by incubation with phorbol myristate acetate (PMA; 100 ng/mL) for 48 to 72 hr, whereupon the cells become adherent. […] Coli: O111:B4, Sigma) for 4 hr. The supernatant was collected for determination of TNFα and IL-8 concentrations by sandwich ELISA (Duo-set, R&D systems). […] The relative 50% effective concentration (REC50) was determined from the resultant concentration-response curve. The inhibition of IL-8 production was calculated at each concentration of test compound by comparison with vehicle control.
# p38 MAPK γ (MAPK12) = p38 MAPK γ (MAPK12) (Homo sapiens (Human), UniProt P53778); assay: Enzyme inhibition assay (FRET, Z-LYTE), p38 MAPK gamma; type: biochemical; settings: read-out: Enzyme Profile: IC50 Values p38γ
# Protocol: (§2) The enzyme inhibitory activity of test compounds was determined by fluorescence resonance energy transfer (FRET) using synthetic peptides labelled with both donor and acceptor fluorophores (Z-LYTE, Invitrogen). Recombinant, phosphorylated p38 MAPK γ (MAPK12:Millipore) was diluted in HEPES buffer, mixed with compound at the desired final concentrations and incubated for 2 hr at RT. The FRET peptide (2 μM) and ATP (100 μM) were next added to the enzyme/compound mixture and incubated for 1 hr. Development reagent (protease) was added for 1 hr prior to detection in a fluorescence microplate reader. The site-specific protease only cleaves non-phosphorylated peptide and eliminates the FRET signal. Phosphorylation levels of each reaction were calculated using the ratio of coumarin emission (donor) over fluorescein emission (acceptor) with high ratios indicating high phosphorylation levels and low ratios indicating low phosphorylation levels.
# [2] = tested on: IL-8 release in d-U937 cells; assay: LPS-induced IL-8 release in d-U937 cells; type: cell-based; settings: Homo sapiens, dU937; d-U937 cells, LPS 0.1 μg/mL, 4 hr; read-out: d-U937 (LPS) IL-8 IC50
# Protocol: as §1
# HCK enzyme = HCK enzyme (Homo sapiens (Human), UniProt P08631); assay: HCK enzyme inhibition assay (FRET, Z'-LYTE); type: biochemical; settings: read-out: Enzyme Profile: IC50 Values HCK
# cSrc enzyme = cSrc enzyme (Homo sapiens (Human), UniProt P12931); assay: c-SRC enzyme inhibition assay (FRET, Z'-LYTE); type: biochemical; settings: read-out: Enzyme Profile: IC50 Values cSrc
# HRV16 = assay: Rhinovirus-titre assay; type: cell-based, human rhinovirus; settings: HRV16; for inhibition at 0.04 µg/mL: Human rhinovirus sp., cell not marked b, test compounds 0.04 μg/mL per method (footnote b, 0.2 μg/mL), read-out: HRV titre (inhibitory %): % inhibition observed vs. HRV16 infection control; for NBEC (HRV) HRV titre Relative anti-viral activity: at 0.04 μg/mL vs. pleconaril at 0.1 μg/mL
# Protocol: MRC5 cells (human lung fibroblast, ATCC) were infected with 1 MOI (multiplicity of infection of 1.0) of HRV16 and incubated for 1 hr at 33° C. with gentle shaking to stimulate adsorption. The cells were then washed with PBS, fresh media was added and the cells were incubated for a further 96 hr. The supernatant was collected and 10-fold serial dilutions of virus containing supernatant were prepared. All titrations were performed by infecting confluent Hela cell monolayers with serially diluted supernatant (10^−1-10^−5) and assessing the cytopathic effect by visual inspection 4 days after infection. The amount of virus required to infect 50% of Hela cells was calculated in each treatment as TCID50. Test compounds (0.04 μg/mL) were added 2 hr before HRV infection and 1 hr after infection when non-infected HRV was washed out. The anti-HRV activity of each test compound was determined as the difference of the log TCID50 of HRV16 in the presence of the compound with the log TCID50 of HRV16 in the absence of compound. […]
# [3] = tested on: TNFα release in THP-1 cells; assay: LPS-induced TNFα release in THP-1 cells; type: cell-based; settings: Homo sapiens; THP-1 cells, LPS 3 μg/mL, 4 hr; read-out: THP1 (LPS) TNFα IC50
# Protocol: The inhibition of TNFα production was calculated at each concentration by comparison with vehicle control.
# p38 MAPK alpha (MAPK14) = p38 MAPK alpha (MAPK14) (Homo sapiens (Human), UniProt Q16539); assay: Enzyme inhibition assay (FRET, Z-LYTE), p38 MAPK alpha via MAPKAP-K2 activation; type: biochemical; settings: read-out: Enzyme Profile: IC50 Values p38α
# Protocol: as §2
# For p38 MAPK alpha (MAPK14: Invitrogen), enzyme activity was evaluated indirectly by determining activation/phosphorylation of the down-stream molecule, MAPKAP-K2. The p38 MAPK a protein was mixed with compound for 2 hr at RT. […] Development reagent was then added and the mixture incubated for 1 hr before detection by fluorescence completed the assay protocol.
# The enzyme inhibitory activity of compound was determined by fluorescence resonance energy transfer (FRET) using synthetic peptides labelled with both donor and acceptor fluorophores (Z′-LYTE, Invitrogen).
# [4] = tested on: ICAM-1 expression in BEAS2B cells; assay: Poly I:C-induced ICAM-1 induction in BEAS2B cells; type: cell-based; settings: Homo sapiens, BEAS-2B; BEAS2B cells, poly I:C 1 μg/mL, 18 hr; read-out: BEAS2B (polyIC) ICAM1 IC50
# Protocol: Poly I:C (1 μg/mL) (Invivogene Ltd., San Diego, Calif.) was transfected into BEAS2B cells (human bronchial epithelial cells, ATCC) with Oligofectamine (Invitrogen, Carlsbad, Calif.). Cells were pre-incubated with final concentrations of test compounds for 2 hr and the level of ICAM1 expression on the cell surface was determined by cell-based ELISA. […] The cells were washed with PBS-Tween and incubated with the secondary antibody (HRP-conjugated anti-rabbit IgG, Dako Ltd., Glostrup, Denmark).
# [5] = tested on: Differentiated U937 cells; assay: MTT assay: cell viability; type: cell-based, human; settings: 1 μg/ml; for d-U937 MTT Assay 4 h: 5% FCS; for d-U937 MTT Assay 24 h: 10% FCS
# Protocol: Differentiated U937 cells were pre-incubated with each test compound under two protocols: the first for 4 hr in 5% FCS and the second in 10% FCS for 24 h. The supernatant was replaced with 200 μL of new media and 10 μL of MTT stock solution (5 mg/mL) was added to each well. After incubation for 1 hr the media were removed, 200 μL of DMSO was added to each well and the plates were shaken lightly for 1 hr prior to reading the absorbance at 550 nm. The percentage loss of cell viability was calculated for each well relative to vehicle (0.5% DMSO) treatment. Consequently an apparent increase in cell viability for drug treatment relative to vehicle is tabulated as a negative percentage.
Structure (SMILES),EC50 [1],IC50 (p38 MAPK γ (MAPK12)),IC50 [2],IC50 (HCK enzyme),IC50 (cSrc enzyme),inhibition at 0.04 µg/mL (HRV16),NBEC (HRV) HRV titre Relative anti-viral activity (HRV16),IC50 [3],IC50 (p38 MAPK alpha (MAPK14)),IC50 [4],d-U937 MTT Assay 4 h [5],d-U937 MTT Assay 24 h [5]
"Cc1ccc(-n2nc(C(C)(C)C)cc2NC(=O)Nc2ccc(Oc3ccnc4[nH]c(=O)[nH]c34)c3ccccc23)cc1 [Example 1, 1-(3-tert-butyl-1-p-tolyl-1H-pyrazol-5-yl)-3-(4-(2-oxo-2,3-dihydro-1H-imidazo [4,5-b]pyridin-7-yloxy)naphthalen-1-yl) urea]",0.2 nM,74 nM,19 nM,< 2 nM,7 nM,94%,0.1,1.6 nM,17 nM,2.7 nM,"− (− and + indicate the result is below and above the no significant effect threshold, respectively (<30% inhibition at a concentration of 1 μg/ml))","− (− and + indicate the result is below and above the no significant effect threshold, respectively (<30% inhibition at a concentration of 1 μg/ml))"
"CC(C)(C)c1cc(NC(=O)Nc2ccc(Oc3ccnc4[nH]c(=O)[nH]c34)c3ccccc23)n(-c2ccccc2)n1 [Example 2, 1-(3-tert-butyl-1-phenyl-1H-pyrazol-5-yl)-3-(4-(2-oxo-2,3-dihydro-1H-imidazo [4,5-b]pyridin-7-yloxy)naphthalen-1-yl) urea]",3 nM,67 nM,7.5 nM,< 2 nM,36 nM,60%,1,1.4 nM,5 nM,9.8 nM,"− (− and + indicate the result is below and above the no significant effect threshold, respectively (<30% inhibition at a concentration of 1 μg/ml))","− (− and + indicate the result is below and above the no significant effect threshold, respectively (<30% inhibition at a concentration of 1 μg/ml))"
"Cc1ccc(-n2nc(C(C)(C)C)cc2NC(=O)Nc2ccc(Oc3ccnc4[nH]c(=O)n(C)c34)c3ccccc23)cc1 [Example 3, 1-(3-tert-butyl-1-p-tolyl-1H-pyrazol-5-yl)-3-(4-(1-methyl-2-oxo-2,3-dihydro-1H-imidazo[4,5-b]pyridin-7-yloxy)naphthalen-1-yl)urea]",1.1 nM,24 nM,17 nM,2 nM,4 nM,36%,0.2,0.7 nM,1 nM,4.1 nM,"− (− and + indicate the result is below and above the no significant effect threshold, respectively (<30% inhibition at a concentration of 1 μg/ml))","− (− and + indicate the result is below and above the no significant effect threshold, respectively (<30% inhibition at a concentration of 1 μg/ml))"
"CC(C)(C)c1cc(NC(=O)Nc2ccc(Oc3ccnc4[nH]c(=O)[nH]c34)c3ncccc23)n(-c2ccccc2)n1 [Example 4, 1-(3-tert-butyl-1-phenyl-1H-pyrazol-5-yl)-3-(8-(2-oxo-2,3-dihydro-1H-imidazo [4,5-b]pyridin-7-yloxy)quinolin-5-yl) urea]",171 nM,214 nM,378 nM,7 nM,0.9 nM,60%,0.7,185 nM,18 nM,581 nM,"− (− and + indicate the result is below and above the no significant effect threshold, respectively (<30% inhibition at a concentration of 1 μg/ml))","− (− and + indicate the result is below and above the no significant effect threshold, respectively (<30% inhibition at a concentration of 1 μg/ml))"
"COc1ccc(-n2nc(C(C)(C)C)cc2NC(=O)Nc2ccc(Oc3ccnc4[nH]c(=O)n(C)c34)c(Cl)c2Cl)cc1 [Example 13, 1-(3-(tert-Butyl)-1-(4-methoxyphenyl)-1H-pyrazol-5-yl)-3-(2,3-dichloro-4-((1-methyl-2-oxo-2,3-dihydro-1H-imidazo[4,5-b]pyridin-7-yl)oxy)phenyl)urea]",0.6 nM,23 nM,4.6 nM,4 nM,5 nM,,,0.6 nM,7 nM,6.2 nM,"− (− and + indicate the result is below and above the no significant effect threshold, respectively (<30% inhibition at a concentration of 1 μg/ml))","+ (− and + indicate the result is below and above the no significant effect threshold, respectively (<30% inhibition at a concentration of 1 μg/ml))"
"CNS(=O)(=O)Cc1ccc(-n2nc(C(C)(C)C)cc2NC(=O)Nc2ccc(Oc3ccnc4[nH]c(=O)cnc34)c3ccccc23)cc1 [Example 26, 1-(4-(3-(tert-butyl)-5-(3-(4-((3-oxo-3,4-dihydropyrido[2,3-b]pyrazin-8-yl)oxy)naphthalen-1-yl)ureido)-1H-pyrazol-1-yl)phenyl)-N-methylmethanesulfonamide]",1.9 nM,29 nM,1.6 nM,3 nM,13 nM,,,75 nM,7 nM,207 nM,"− (− and + indicate the result is below and above the no significant effect threshold, respectively (<30% inhibition at a concentration of 1 μg/ml))","− (− and + indicate the result is below and above the no significant effect threshold, respectively (<30% inhibition at a concentration of 1 μg/ml))"
